Assay results published in publication PMC10344917, “Affinity and cooperativity modulate ternary complex formation to drive targeted protein degradation” (Nature Communications, 2023).
Read-outs that look alike come from different tables or passages of the source.

Experiments:
[1] = molecular target: T1, VBC / BRD4^BD2 ternary complex (Homo sapiens, UniProt O60885+P40337); test: SPR ternary complex binding, VBC surface with preformed PROTAC/BRD4 BD2 complex; conditions: for Kd: SPR, VHL, PROTAC, error SEM, N = 3, read-out: KLPT (ternary complex binding affinity)
T1 construct: VHL (54-213), ElonginB (17-112) ElonginC (1-104); ternary complex formation with both bromodomains, BRD4^BD1 and BRD4^BD2, independently; His6 (N); made in house
Description: (§1) SPR experiments were performed on a Biacore 8 K or T200 instrument (Cytiva). […] The running buffer during immobilization was PBS with 0.005% P20. Either high-density (3000-4000 RU) or low-density (300-400 RU) VBC-functionalized surfaces were created, followed by equilibration in the running buffer for 3 h.
(§2) PROTACs (10 mM in 100% DMSO) were initially prepared at 200 nM in a running buffer (20 mM Tris pH 8.0, 250 mM NaCl, 1 mM TCEP, 0.01% P20, 0.2 mg/ml BSA) with a concentration of 2% DMSO. This solution was mixed at 1:1 ratio with a solution of 5 μM of the SMARCA2 or BRD4 bromodomain protein in the running buffer. […] For ternary experiments, solutions were injected sequentially in single-cycle kinetic format without regeneration (contact time 60 s, flow rate 80 μL/min, dissociation time 300 s) using a stabilization period of 60 s and syringe wash (50% DMSO) between injections onto a low-density VBC-functionalized surface.
(§3) Raw sensorgrams were processed by performing double reference subtraction, solvent correction, and analysis was done using Biacore Insight Evaluation Software. Kinetic analysis was performed by fitting data to a 1:1 Langmuir interaction model and a steady-state affinity model was used to evaluate equilibrium binding affinity.

[2] = molecular target: T2, BRD4^BD2 (Homo sapiens, UniProt O60885); test: SPR binary binding of PROTAC to BRD4^BD2-functionalized surface; conditions: 1:1 Langmuir binding model, SD N=2
T2 construct: ternary complex formation with both bromodomains, BRD4^BD1 and BRD4^BD2, independently; made in house

[3] = molecular target: T3, VBC / BRD4^BD1 ternary complex (Homo sapiens, UniProt O60885+P40337); test: SPR ternary complex binding, VBC surface with preformed PROTAC/BRD4 BD1 complex; conditions: for Kd: SPR, VHL, PROTAC, error SEM, N = 3, read-out: KLPT (ternary complex binding affinity)
T3 construct: VHL (54-213), ElonginB (17-112) ElonginC (1-104); BRD4 (44-168); His6 (N, cleaved yes); made in house
Description: as §1, §2, §3

[4] = molecular target: T4, BRD4-NanoLuc (Homo sapiens, UniProt O60885); test: NanoBRET target engagement assay, live and permeabilized HEK293 cells (BRD4); assay type: cell-based; conditions: for Availability Index: RBA test cmpd / RBA of JQ1 benchmark, surrogate for permeability; for IC50: BRD4 NanoBRET TE
T4 construct: expressed in transfected cells; host or cells: HEK293
Description: We employed a NanoBRET-based target engagement (TE) assay as reported earlier^7 for evaluating PROTACs relative permeability. In summary, live and permeabilized HEK293 cells with SMARCA2 or BRD4-NanoLuc were used for measuring IC50 values of different PROTACs. The relative shift in the IC50 was evaluated as relative binding affinity (RBA) by taking the ratio of IC50 values of live and permeabilized cells. Availability index (AI), which is a surrogate for permeability can be calculated by taking a ratio of RBA of compounds to permeable benchmark molecules.
Relative Binding Affinity (RBA) = Live-cell TE IC50 / Permeabilized-cell TE IC50
Availability Index (AI) = RBAtest cmpd / RBApermeable benchmark
Availability Index (AI) greater than one is indicative of reduced permeability compared to the benchmark.

[5] = molecular target: T5, BRD4 (Homo sapiens, UniProt O60885); test: BRD4 degradation, MSD assay, dose response; assay type: cell-based; parameters: AUC (area under the dose-response curve): unit not given beside the values; conditions: A375 cells; for Dmax: A-375, BRD4 degraded; for Dmax / DC50: MSD assay, 4 h timepoint; for AUC (area under the dose-response curve): BRD4 MSD assay, 4 h; for DC50: BRD4 degradation
T5 construct: endogenous in cells; host or cells: A375
Description: A375 cells were treated with SMARCA2 or BRD4 degraders for 2 h (4 h for BRD4) and generated lysates. SMARCA2 or BRD4 protein was measured with a variation of a sandwich ELISA that was assembled from commercially available antibodies as well as reagents and instrumentation procured from Meso Scale Discovery (MSD). Degradation parameter, DC50, is not suitable for PROTACs that induce partial/incomplete DR curves at a fixed time point; maximum drop in target protein level (Dmax) >>0. Conversely, the area under the curve (AUC) can be calculated as a degradation activity parameter for any DR curve, and it encompasses both the degradation potency (i.e., DC50) and efficacy (i.e., Dmax) of PROTACs.
A 1:3 compound dose-response titration was diluted in growth media (1:20), added to appropriate wells of a cell culture plate (1:10) and then assay plates were incubated at 37 °C, 5% CO2.
Plates were washed with 300 µL per well MSD wash buffer (MSD R61TX-1) between each step. Following the last incubation, plates were washed with MSD wash buffer then 150 µL of MSD read buffer (MSD R92TC-2) was added to each well. Plates were immediately read on a MSD plate reader (MSD Sector Imager 6000).
(§4) MSD electrochemiluminescence signals were subtracted by the average background signal from wells with lysis buffer alone. Normalized MSD values (POC) for individual compound treated wells were acquired by dividing background-subtracted assay signal by signal from vehicle control wells (cells + 0.1% DMSO) and multiplying by 100. This POC data was graphed using a nonlinear regression curve fit xy analysis and a log(inhibitor) vs response —variable slope (four parameter) model for dose response curves (Graphpad Prism 9, San Diego, CA, USA). To calculate area under the curve, all points on the curve were connected and vertical lines were drawn from each point down to y = 0, generating a series of trapezoids. The area of each trapezoid was determined using the equation A = (1/2)(h)(b1 + b2), where h = 1 (distance between points), b1 = POC of the first point and b2 = POC of the second point. The sum of all trapezoids provides an approximate area under the curve (AUC). For half-life (t1/2) determination in time course studies, a one-phase decay model was used for curve fitting and the time at which the curve crossed 50 POC was determined through interpolation (Graphpad Prism 9, San Diego, CA, USA).

[6] = molecular target: T6, VHL/EloB/EloC (VBC) (Homo sapiens, UniProt P40337); test: SPR binary binding of PROTAC to VBC-functionalized surface
T6 construct: VHL (54-213), ElonginB (17-112) ElonginC (1-104); made in house
Description: as §1
PROTACs (10 mM stocks in 100% DMSO) were diluted to 400 nM in a running buffer (20 mM Tris pH 7.5, 200 mM NaCl, 0.02% P20). This stock solution was then serially diluted in the running buffer containing final 2% DMSO. […] For SMARCA2 analysis, biotinylated proteins were introduced on a Series S streptavidin (SA) sensor chip at high-density (3000-4000 RU).
as §3

[7] = molecular target: T5, BRD4; test: BRD4 degradation time course in A375 cells (MSD); assay type: cell-based; conditions: single concentration at or near maximal activity
From the text: To measure the rate of protein degradation, we treated A375 cells with a single concentration of each PROTAC and measured the decrease in target abundance over time as shown in Figs. 4b and5b.
as §4

[8] = live HEK293 cells, read-out: Live-Cell TE
[9] = permeabilized HEK293 cells, read-out: Permeabilized-Cell TE
[10] = SPR, error SEM, N = 3, read-out: KLP (binary binding affinity between E3 ligase VHL and PROTAC)

Cc1ncsc1-c1ccc(CNC(=O)[C@@H]2C[C@@H](O)CN2C(=O)[C@@H](NC(=O)COCCOCc2cn(CCNC(=O)C[C@@H]3N=C(c4ccc(Cl)cc4)c4c(sc(C)c4C)-n4c(C)nnc43)nn2)C(C)(C)C)cc1 [Compound 13, (2S,4R)-1-((S)-2-(2-(2-((1-(2-(2-((S)-4-(4-chlorophenyl)-2,3,9-trimethyl-6H-thieno[3,2-f][1,2,4]triazolo[4,3-a][1,4]diazepin-6-yl)acetamido)ethyl)-1H-1,2,3-triazol-4-yl)methoxy)ethoxy)acetamido)-3,3-dimethylbutanoyl)-4-hydroxy-N-(4-(4-methylthiazol-5-yl)benzyl)pyrrolidine-2-carboxamide]
α (cooperativity, KLP/KLPT) [1]: 1.7 | Kd [1]: 0.01 ± 0.002 µM | Kd [2]: 0.0117 ± 0.0009 µM | α (cooperativity, KLP/KLPT) [3]: 0.6 | Kd [3]: 0.029 ± 0.003 µM | Availability Index [4]: 73.87 | IC50 [4, 8]: 7.27 µM | IC50 [4, 9]: 0.1 µM | Dmax [5]: 78% | AUC (area under the dose-response curve) [5]: 309 | DC50 [5]: 0.726 µM | Kd [6]: 0.017 ± 0.002 µM | Initial Degradation Rate [7]: 0.76 %/min

Cc1ncsc1-c1ccc(CNC(=O)[C@@H]2C[C@@H](O)CN2C(=O)[C@@H](NC(=O)COCCOCCOCc2cn(CCNC(=O)C[C@@H]3N=C(c4ccc(Cl)cc4)c4c(sc(C)c4C)-n4c(C)nnc43)nn2)C(C)(C)C)cc1 [Compound 14, (2S,4R)-1-((S)-12-(tert-butyl)-1-(1-(2-(2-((S)-4-(4-chlorophenyl)-2,3,9-trimethyl-6H-thieno[3,2-f][1,2,4]triazolo[4,3-a][1,4]diazepin-6-yl)acetamido)ethyl)-1H-1,2,3-triazol-4-yl)-10-oxo-2,5,8-trioxa-11-azatridecan-13-oyl)-4-hydroxy-N-(4-(4-methylthiazol-5-yl)benzyl)pyrrolidine-2-carboxamide]
α (cooperativity, KLP/KLPT) [1]: 1 | Kd [1]: 0.0265 ± 0.004 µM | Kd [2]: 0.0096 ± 0.0009 µM | α (cooperativity, KLP/KLPT) [3]: 0.8 | Kd [3]: 0.033 ± 0.004 µM | Availability Index [4]: 126.63 | IC50 [4, 8]: 12.6 µM | IC50 [4, 9]: 0.1 µM | Dmax [5]: 69% | AUC (area under the dose-response curve) [5]: 460 | DC50 [5]: 2.26 µM | Kd [6, 10]: 0.026 ± 0.005 µM | Initial Degradation Rate [7]: 0.46 %/min

Cc1ncsc1-c1ccc(CNC(=O)[C@@H]2C[C@@H](O)CN2C(=O)[C@@H](NC(=O)COCCOCCOCCOCc2cn(CCNC(=O)C[C@@H]3N=C(c4ccc(Cl)cc4)c4c(sc(C)c4C)-n4c(C)nnc43)nn2)C(C)(C)C)cc1 [Compound 15, (2S,4R)-1-((S)-15-(tert-butyl)-1-(1-(2-(2-((S)-4-(4-chlorophenyl)-2,3,9-trimethyl-6H-thieno[3,2-f][1,2,4]triazolo[4,3-a][1,4]diazepin-6-yl)acetamido)ethyl)-1H-1,2,3-triazol-4-yl)-13-oxo-2,5,8,11-tetraoxa-14-azahexadecan-16-oyl)-4-hydroxy-N-(4-(4-methylthiazol-5-yl)benzyl)pyrrolidine-2-carboxamide]
α (cooperativity, KLP/KLPT) [1]: 0.8 | Kd [1]: 0.039 ± 0.005 µM | Kd [2]: 0.0162 ± 0.0026 µM | α (cooperativity, KLP/KLPT) [3]: 1.2 | Kd [3]: 0.0265 ± 0.004 µM | Availability Index [4]: 34.23 | IC50 [4, 8]: 3.92 µM | IC50 [4, 9]: 0.11 µM | AUC (area under the dose-response curve) [5]: 733 | DC50 [5]: > 10 µM | Kd [6, 10]: 0.031 ± 0.004 µM | Initial Degradation Rate [7]: 0.21 %/min

Cc1ncsc1-c1ccc(CNC(=O)[C@@H]2C[C@@H](O)CN2C(=O)[C@@H](NC(=O)COCCOCCOCCOCCOCc2cn(CCNC(=O)C[C@@H]3N=C(c4ccc(Cl)cc4)c4c(sc(C)c4C)-n4c(C)nnc43)nn2)C(C)(C)C)cc1 [Compound 16, (2S,4R)-1-((S)-18-(tert-butyl)-1-(1-(2-(2-((S)-4-(4-chlorophenyl)-2,3,9-trimethyl-6H-thieno[3,2-f][1,2,4]triazolo[4,3-a][1,4]diazepin-6-yl)acetamido)ethyl)-1H-1,2,3-triazol-4-yl)-16-oxo-2,5,8,11,14-pentaoxa-17-azanonadecan-19-oyl)-4-hydroxy-N-(4-(4-methylthiazol-5-yl)benzyl)pyrrolidine-2-carboxamide]
α (cooperativity, KLP/KLPT) [1]: 0.7 | Kd [1]: 0.049 ± 0.006 µM | Kd [2]: 0.0158 ± 0.002 µM | α (cooperativity, KLP/KLPT) [3]: 1 | Kd [3]: 0.033 ± 0.005 µM | Availability Index [4]: 164.81 | IC50 [4, 8]: 18 µM | IC50 [4, 9]: 0.11 µM | AUC (area under the dose-response curve) [5]: 900 | DC50 [5]: > 10 µM | Kd [6]: 0.033 ± 0.005 µM | Initial Degradation Rate [7]: 0.08 %/min
